Like-named read-outs stand apart in the source and are kept apart here. Values belong to the compound of their own block, whether it stands above or below them.
Legend:
[1] = biological target: T1, recombinant integrin α4β1 (Homo sapiens, UniProt P05556+P13612); assay: Integrin α4β1—VCAM-1 competition ELISA; assay type: binding; details: for ELISA Assay Ratio β1/β7: ratio of ELISA IC50s, α4β1 over α4β7; for IC50: read-out: ELISA α4β1 Assay IC50
T1 construct: purchased R&D Systems 5397-A3-050
Procedure, shortened: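 Compound dilutions added to coated plate and shaken at room temperature for 2 h (300 rpm) to binding equilibrium. Wash buffer: 50 mM Tris, 100 mM NaCl, 1 mM MnCl2, 0.05% Tween. Bound Fc-tagged ligand detected with anti-human IgG Fc-HRP, 1 h at room temperature.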

[2] = biological target: T2, integrin α4β1 (RAMOS human cells adhering to VCAM-1) (Homo sapiens, UniProt P05556+P13612); assay: Integrin α4β1-VCAM cell adhesion assay (RAMOS cells); assay type: cell-based
T2 construct: Ramos cells, which express integrin α4β1; host or cells: RAMOS
T2 sequence (P13612 34-1032): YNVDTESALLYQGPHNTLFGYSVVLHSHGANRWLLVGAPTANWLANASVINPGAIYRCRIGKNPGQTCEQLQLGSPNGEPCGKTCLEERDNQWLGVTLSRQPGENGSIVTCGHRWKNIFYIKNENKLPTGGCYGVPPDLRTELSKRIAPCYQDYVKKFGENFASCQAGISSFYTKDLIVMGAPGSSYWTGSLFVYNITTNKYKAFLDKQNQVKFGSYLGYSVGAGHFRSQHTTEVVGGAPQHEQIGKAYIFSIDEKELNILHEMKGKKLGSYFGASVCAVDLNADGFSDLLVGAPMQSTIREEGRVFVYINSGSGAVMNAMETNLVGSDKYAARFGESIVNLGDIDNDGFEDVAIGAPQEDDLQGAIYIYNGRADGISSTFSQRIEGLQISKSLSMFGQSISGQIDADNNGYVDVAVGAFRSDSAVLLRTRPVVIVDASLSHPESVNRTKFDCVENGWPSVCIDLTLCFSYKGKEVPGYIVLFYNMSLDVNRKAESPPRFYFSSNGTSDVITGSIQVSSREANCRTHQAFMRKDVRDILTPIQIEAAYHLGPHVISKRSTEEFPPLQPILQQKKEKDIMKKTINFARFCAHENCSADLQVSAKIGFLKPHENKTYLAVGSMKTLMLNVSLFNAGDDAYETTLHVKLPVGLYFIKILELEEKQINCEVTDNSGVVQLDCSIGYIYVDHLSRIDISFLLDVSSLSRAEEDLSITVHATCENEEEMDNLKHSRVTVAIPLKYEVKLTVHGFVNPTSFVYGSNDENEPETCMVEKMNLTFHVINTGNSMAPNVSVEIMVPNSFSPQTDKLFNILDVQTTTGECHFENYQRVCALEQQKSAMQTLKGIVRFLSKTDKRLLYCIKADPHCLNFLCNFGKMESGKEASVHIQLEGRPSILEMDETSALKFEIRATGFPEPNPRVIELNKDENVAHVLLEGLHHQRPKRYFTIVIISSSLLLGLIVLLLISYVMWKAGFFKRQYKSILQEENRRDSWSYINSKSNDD
T2 sequence (P05556 21-798): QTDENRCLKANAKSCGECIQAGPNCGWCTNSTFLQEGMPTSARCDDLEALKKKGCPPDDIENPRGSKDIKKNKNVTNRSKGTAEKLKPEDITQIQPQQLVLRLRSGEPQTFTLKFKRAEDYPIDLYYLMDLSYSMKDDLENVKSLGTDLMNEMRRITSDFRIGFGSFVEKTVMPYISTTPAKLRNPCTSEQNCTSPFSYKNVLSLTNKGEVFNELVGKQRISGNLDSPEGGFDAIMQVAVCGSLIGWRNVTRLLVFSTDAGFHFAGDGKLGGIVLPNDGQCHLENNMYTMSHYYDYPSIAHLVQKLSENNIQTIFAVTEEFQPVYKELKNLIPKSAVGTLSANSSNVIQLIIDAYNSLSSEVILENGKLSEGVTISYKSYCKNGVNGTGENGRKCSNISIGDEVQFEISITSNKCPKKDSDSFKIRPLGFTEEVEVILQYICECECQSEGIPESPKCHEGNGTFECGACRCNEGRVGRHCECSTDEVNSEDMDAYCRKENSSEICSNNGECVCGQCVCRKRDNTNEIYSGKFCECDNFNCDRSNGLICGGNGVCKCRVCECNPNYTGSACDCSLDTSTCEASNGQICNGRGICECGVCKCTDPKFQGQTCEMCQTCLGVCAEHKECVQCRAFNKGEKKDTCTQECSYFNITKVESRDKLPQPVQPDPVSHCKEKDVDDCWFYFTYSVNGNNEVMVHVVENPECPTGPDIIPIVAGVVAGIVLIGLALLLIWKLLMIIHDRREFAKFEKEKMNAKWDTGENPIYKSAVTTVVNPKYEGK
Description: Integrin α4β1-VCAM Cell Adhesion Assay
The plate was incubated overnight at 4° C. and washed twice with 150 μl per well wash buffer (0.05% Tween 20 in PBS), blocked with 250 μl per well blocking buffer (1% non-fat dry milk in PBS), for 1 hour at room temperature. During blocking step, RAMOS cells were resuspended at 10 million cells/ml in PBS containing […] and incubated at 37° C. for 30 min in a 50 ml tube. […] The plate was emptied by inverting and blotting on paper towels and washed manually twice with PBS. […] To calculate the dose response, the fluorescence value of control wells not containing cells was subtracted from each test well.

[3] = Ramos cells adhering to VCAM, read-out: Ramos Adhesion α4β1/VCAM IC50
[4] = ratio of cell adhesion IC50s, Ramos α4β1/VCAM over RPMI8866 α4β7/MAdCAM

T1 sequence (P13612 34-970 limits assumed): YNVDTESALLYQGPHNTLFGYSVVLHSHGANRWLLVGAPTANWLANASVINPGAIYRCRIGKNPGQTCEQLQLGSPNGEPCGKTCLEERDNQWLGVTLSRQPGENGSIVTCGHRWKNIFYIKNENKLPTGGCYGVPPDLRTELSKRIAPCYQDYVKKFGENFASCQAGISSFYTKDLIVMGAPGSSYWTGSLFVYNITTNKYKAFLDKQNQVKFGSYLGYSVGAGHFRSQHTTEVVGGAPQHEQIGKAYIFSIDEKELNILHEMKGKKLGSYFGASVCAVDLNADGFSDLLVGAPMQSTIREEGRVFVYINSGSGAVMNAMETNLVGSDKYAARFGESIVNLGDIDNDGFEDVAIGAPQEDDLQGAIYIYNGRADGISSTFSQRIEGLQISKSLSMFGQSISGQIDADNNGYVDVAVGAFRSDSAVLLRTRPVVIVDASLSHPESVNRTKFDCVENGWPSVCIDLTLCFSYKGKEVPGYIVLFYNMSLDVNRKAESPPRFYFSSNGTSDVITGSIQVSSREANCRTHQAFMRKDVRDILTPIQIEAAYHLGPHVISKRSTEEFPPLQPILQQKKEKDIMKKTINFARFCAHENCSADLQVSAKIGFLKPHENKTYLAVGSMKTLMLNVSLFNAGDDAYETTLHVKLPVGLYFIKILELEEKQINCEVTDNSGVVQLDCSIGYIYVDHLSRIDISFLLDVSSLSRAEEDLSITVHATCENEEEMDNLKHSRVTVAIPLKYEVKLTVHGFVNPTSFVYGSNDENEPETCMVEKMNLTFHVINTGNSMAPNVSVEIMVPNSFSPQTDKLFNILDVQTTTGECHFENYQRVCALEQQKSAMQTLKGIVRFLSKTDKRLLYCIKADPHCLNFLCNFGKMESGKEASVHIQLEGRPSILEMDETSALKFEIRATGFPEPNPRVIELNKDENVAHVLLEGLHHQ
T1 sequence (P05556 21-728 limits assumed): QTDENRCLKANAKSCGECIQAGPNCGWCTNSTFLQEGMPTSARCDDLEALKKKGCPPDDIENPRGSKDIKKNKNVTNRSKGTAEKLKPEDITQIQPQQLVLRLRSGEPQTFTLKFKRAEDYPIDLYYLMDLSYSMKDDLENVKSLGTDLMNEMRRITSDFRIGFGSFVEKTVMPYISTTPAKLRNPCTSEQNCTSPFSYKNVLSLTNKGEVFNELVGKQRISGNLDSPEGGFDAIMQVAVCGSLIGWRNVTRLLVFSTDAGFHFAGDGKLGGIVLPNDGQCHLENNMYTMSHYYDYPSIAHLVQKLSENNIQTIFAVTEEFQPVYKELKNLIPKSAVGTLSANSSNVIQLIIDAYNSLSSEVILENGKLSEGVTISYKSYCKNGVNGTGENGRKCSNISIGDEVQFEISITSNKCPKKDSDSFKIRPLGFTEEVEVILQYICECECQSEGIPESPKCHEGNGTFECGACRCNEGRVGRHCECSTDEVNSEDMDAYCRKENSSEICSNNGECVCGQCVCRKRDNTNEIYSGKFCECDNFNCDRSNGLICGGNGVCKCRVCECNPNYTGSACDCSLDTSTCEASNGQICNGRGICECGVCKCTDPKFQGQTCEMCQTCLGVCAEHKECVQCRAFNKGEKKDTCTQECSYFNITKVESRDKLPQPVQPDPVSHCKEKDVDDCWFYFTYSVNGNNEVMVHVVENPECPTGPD

SMILES: CC(C)C[C@@H]1NC(=O)c2ccc(-c3ccc(N4CCN(C(=O)COCC(=O)N5CCN(c6ccc(-c7ccc8cc7CNC(=O)[C@@H]7CCCN7[C@H](C(=O)NC(C)(C)C)[C@H](C)NC(=O)[C@H]([C@@H](C)O)NC(=O)[C@H](CC(=O)O)NC(=O)[C@H](CC(C)C)NC8=O)cc6)CC5)CC4)cc3)c(c2)CNC(=O)[C@@H]2CCCN2[C@H](C(=O)NC(C)(C)C)[C@H](C)NC(=O)[C@H]([C@@H](C)O)NC(=O)[C@H](CC(=O)O)NC1=O [Compound 390]
ELISA Assay Ratio β1/β7 [1]: 0.2
IC50 [1]: 2 nM
IC50 [2, 3]: 857 nM
Ratio Ramos/RPMI [2, 4]: 66

SMILES: CC(C)C[C@@H]1NC(=O)c2ccc(-c3ccc(N4CCN(C(=O)CCC(=O)N5CCN(c6ccc(-c7ccc8cc7CNC(=O)[C@@H]7CCCN7[C@H](C(=O)NC(C)(C)C)[C@H](C)NC(=O)[C@H]([C@@H](C)O)NC(=O)[C@H](CC(=O)O)NC(=O)[C@H](CC(C)C)NC8=O)cc6)CC5)CC4)cc3)c(c2)CNC(=O)[C@@H]2CCCN2[C@H](C(=O)NC(C)(C)C)[C@H](C)NC(=O)[C@H]([C@@H](C)O)NC(=O)[C@H](CC(=O)O)NC1=O [Compound 484]
IC50 [1]: 1.2 nM

SMILES: CC(C)C[C@@H]1NC(=O)C[C@H](CCCCN)N(C)C(=O)[C@H](CCCCNC(=O)CCCCCCCC(=O)NCCCC[C@@H]2NC(=O)[C@@H]3CCCN3[C@H](C(=O)NC(C)(C)C)[C@H](C)NC(=O)[C@H]([C@@H](C)O)NC(=O)[C@H](CC(=O)O)NC(=O)[C@H](CC(C)C)NC(=O)C[C@H](CCCCN)N(C)C2=O)NC(=O)[C@@H]2CCCN2[C@H](C(=O)NC(C)(C)C)[C@H](C)NC(=O)[C@H]([C@@H](C)O)NC(=O)[C@H](CC(=O)O)NC1=O [Compound 533]
ELISA Assay Ratio β1/β7 [1]: 1.2
IC50 [1]: 6.2 nM
IC50 [2, 3]: 4230 nM
Ratio Ramos/RPMI [2, 4]: 257

IC50 [1]: 1.5 nM
IC50 [2, 3]: 825 nM
SMILES: CC(C)C[C@@H]1NC(=O)c2ccc(-c3ccc(N4CCN(CCC(=O)N5CCN(c6ccc(-c7ccc8cc7CNC(=O)[C@@H]7CCCN7[C@H](C(=O)NC(C)(C)C)[C@H](C)NC(=O)[C@H]([C@@H](C)O)NC(=O)[C@H](CC(=O)O)NC(=O)[C@H](CC(C)C)NC8=O)cc6)CC5)CC4)cc3)c(c2)CNC(=O)[C@@H]2CCCN2[C@H](C(=O)NC(C)(C)C)[C@H](C)NC(=O)[C@H]([C@@H](C)O)NC(=O)[C@H](CC(=O)O)NC1=O [Compound 482]

SMILES: CC(C)C[C@@H]1NC(=O)c2ccc(-c3ccc(N4CCN(C(=O)c5cc(-c6ccccc6)c(C(=O)N6CCN(c7ccc(-c8ccc9cc8CNC(=O)[C@@H]8CCCN8[C@H](C(=O)NC(C)(C)C)[C@H](C)NC(=O)[C@H]([C@@H](C)O)NC(=O)[C@H](CC(=O)O)NC(=O)[C@H](CC(C)C)NC9=O)cc7)CC6)cc5-c5ccccc5)CC4)cc3)c(c2)CNC(=O)[C@@H]2CCCN2[C@H](C(=O)NC(C)(C)C)[C@H](C)NC(=O)[C@H]([C@@H](C)O)NC(=O)[C@H](CC(=O)O)NC1=O [Compound 469]
ELISA Assay Ratio β1/β7 [1]: 0.3
IC50 [1]: 10 nM
IC50 [2, 3]: 44 nM

SMILES: CC(C)C[C@@H]1NC(=O)c2ccc(-c3ccc(N4CCN(C(=O)[C@H](CCCCNC(=O)CCCCCC(=O)NCCCC[C@H](NC(=O)OCc5ccccc5)C(=O)N5CCN(c6ccc(-c7ccc8cc7CNC(=O)[C@@H]7CCCN7[C@H](C(=O)NC(C)(C)C)[C@H](C)NC(=O)[C@H]([C@@H](C)O)NC(=O)[C@H](CC(=O)O)NC(=O)[C@H](CC(C)C)NC8=O)cc6)CC5)NC(=O)OCc5ccccc5)CC4)cc3)c(c2)CNC(=O)[C@@H]2CCCN2[C@H](C(=O)NC(C)(C)C)[C@H](C)NC(=O)[C@H]([C@@H](C)O)NC(=O)[C@H](CC(=O)O)NC1=O [Compound 498]
IC50 [1]: 3 nM
IC50 [2, 3]: 1360 nM

SMILES: CC(C)C[C@@H]1NC(=O)C[C@H](CCCCN)N(C)C(=O)[C@H](CCCCNC(=O)CCCCCC(=O)NCCCC[C@@H]2NC(=O)[C@@H]3CCCN3[C@H](C(=O)NC(C)(C)C)[C@H](C)NC(=O)[C@H]([C@@H](C)O)NC(=O)[C@H](CC(=O)O)NC(=O)[C@H](CC(C)C)NC(=O)C[C@H](CCCCN)N(C)C2=O)NC(=O)[C@@H]2CCCN2[C@H](C(=O)NC(C)(C)C)[C@H](C)NC(=O)[C@H]([C@@H](C)O)NC(=O)[C@H](CC(=O)O)NC1=O [Compound 532]
IC50 [1]: 6.9 nM
IC50 [2, 3]: 7150 nM

SMILES: CC(C)C[C@@H]1NC(=O)C[C@H](CCCCN)N(C)C(=O)[C@H](CCCCN)NC(=O)[C@@H]2CCCN2[C@H](C(=O)NC(C)(C)C)[C@H](C)NC(=O)[C@H]([C@@H](C)O)NC(=O)[C@H](CC(=O)O)NC1=O [Compound 456]
ELISA Assay Ratio b1/b7 ([1]; ratio of ELISA IC50 b1 to b7): 1.5
selectivity α4β7 versus α4β1 cell adhesion assays ([2]; RPMI8866 vs Ramos cell adhesion): 45 fold
IC50 ([2]; Ramos cells, VCAM, read-out: Ramos Adhesion a4b1/VCAM IC50): 8920 nM
Ratio Ramos/RPMI ([2]; ratio of Ramos a4b1/VCAM adhesion IC50 to RPMI8866 a4b7/MAdCAM adhesion IC50): 45

SMILES: CC(C)C[C@@H]1NC(=O)c2ccc(-c3ccc(N4CCN(C(=O)C56CC7CC(C5)CC(C(=O)N5CCN(c8ccc(-c9ccc%10cc9CNC(=O)[C@@H]9CCCN9[C@H](C(=O)NC(C)(C)C)[C@H](C)NC(=O)[C@H]([C@@H](C)O)NC(=O)[C@H](CC(=O)O)NC(=O)[C@H](CC(C)C)NC%10=O)cc8)CC5)(C7)C6)CC4)cc3)c(c2)CNC(=O)[C@@H]2CCCN2[C@H](C(=O)NC(C)(C)C)[C@H](C)NC(=O)[C@H]([C@@H](C)O)NC(=O)[C@H](CC(=O)O)NC1=O [Compound 460]
ELISA Assay Ratio β1/β7 [1]: 0.1
IC50 [1]: 1 nM
IC50 [2, 3]: 1850 nM
Ratio Ramos/RPMI [2, 4]: 30

SMILES: CC(C)C[C@@H]1NC(=O)c2ccc(-c3ccc(N4CCN(Cc5cc(CN6CCN(c7ccc(-c8ccc9cc8CNC(=O)[C@@H]8CCCN8[C@H](C(=O)NC(C)(C)C)[C@H](C)NC(=O)[C@H]([C@@H](C)O)NC(=O)[C@H](CC(=O)O)NC(=O)[C@H](CC(C)C)NC9=O)cc7)CC6)cc(CN6CCN(c7ccc(-c8ccc9cc8CNC(=O)[C@@H]8CCCN8[C@H](C(=O)NC(C)(C)C)[C@H](C)NC(=O)[C@H]([C@@H](C)O)NC(=O)[C@H](CC(=O)O)NC(=O)[C@H](CC(C)C)NC9=O)cc7)CC6)c5)CC4)cc3)c(c2)CNC(=O)[C@@H]2CCCN2[C@H](C(=O)NC(C)(C)C)[C@H](C)NC(=O)[C@H]([C@@H](C)O)NC(=O)[C@H](CC(=O)O)NC1=O [Compound 518]
IC50 [1]: 8.7 nM
IC50 [2, 3]: 947 nM

SMILES: CC(C)C[C@@H]1NC(=O)c2ccc(-c3ccc(N4CCN(CC(=O)N5CCN(c6ccc(-c7ccc8cc7CNC(=O)[C@@H]7CCCN7[C@H](C(=O)NC(C)(C)C)[C@H](C)NC(=O)[C@H]([C@@H](C)O)NC(=O)[C@H](CC(=O)O)NC(=O)[C@H](CC(C)C)NC8=O)cc6)CC5)CC4)cc3)c(c2)CNC(=O)[C@@H]2CCCN2[C@H](C(=O)NC(C)(C)C)[C@H](C)NC(=O)[C@H]([C@@H](C)O)NC(=O)[C@H](CC(=O)O)NC1=O [Compound 481]
ELISA Assay Ratio β1/β7 [1]: 0.2
IC50 [1]: 1.6 nM
IC50 [2, 3]: 940 nM
Ratio Ramos/RPMI [2, 4]: 26

SMILES: CC(C)C[C@@H]1NC(=O)C[C@H](CCCCN)N(C)C(=O)[C@H](CCCCNC(=O)CCOCCOCCOCCOCCOCCOCCOCCC(=O)NCCCC[C@@H]2NC(=O)[C@@H]3CCCN3[C@H](C(=O)NC(C)(C)C)[C@H](C)NC(=O)[C@H]([C@@H](C)O)NC(=O)[C@H](CC(=O)O)NC(=O)[C@H](CC(C)C)NC(=O)C[C@H](CCCCN)N(C)C2=O)NC(=O)[C@@H]2CCCN2[C@H](C(=O)NC(C)(C)C)[C@H](C)NC(=O)[C@H]([C@@H](C)O)NC(=O)[C@H](CC(=O)O)NC1=O [Compound 536]
ELISA Assay Ratio β1/β7 [1]: 0.9
IC50 [1]: 8.9 nM
IC50 [2, 3]: 7820 nM
Ratio Ramos/RPMI [2, 4]: 479

SMILES: CC(C)C[C@@H]1NC(=O)c2ccc(-c3ccc(N4CCN(C(=O)c5cc(C(=O)N6CCN(c7ccc(-c8ccc9cc8CNC(=O)[C@@H]8CCCN8[C@H](C(=O)NC(C)(C)C)[C@H](C)NC(=O)[C@H]([C@@H](C)O)NC(=O)[C@H](CC(=O)O)NC(=O)[C@H](CC(C)C)NC9=O)cc7)CC6)cc(C(=O)N6CCN(c7ccc(-c8ccc9cc8CNC(=O)[C@@H]8CCCN8[C@H](C(=O)NC(C)(C)C)[C@H](C)NC(=O)[C@H]([C@@H](C)O)NC(=O)[C@H](CC(=O)O)NC(=O)[C@H](CC(C)C)NC9=O)cc7)CC6)c5)CC4)cc3)c(c2)CNC(=O)[C@@H]2CCCN2[C@H](C(=O)NC(C)(C)C)[C@H](C)NC(=O)[C@H]([C@@H](C)O)NC(=O)[C@H](CC(=O)O)NC1=O [Compound 520]
IC50 [1]: 1.2 nM

SMILES: CC(C)C[C@@H]1NC(=O)c2ccc(-c3ccc(N4CCN(C(=O)c5ccccc5-c5ccccc5C(=O)N5CCN(c6ccc(-c7ccc8cc7CNC(=O)[C@@H]7CCCN7[C@H](C(=O)NC(C)(C)C)[C@H](C)NC(=O)[C@H]([C@@H](C)O)NC(=O)[C@H](CC(=O)O)NC(=O)[C@H](CC(C)C)NC8=O)cc6)CC5)CC4)cc3)c(c2)CNC(=O)[C@@H]2CCCN2[C@H](C(=O)NC(C)(C)C)[C@H](C)NC(=O)[C@H]([C@@H](C)O)NC(=O)[C@H](CC(=O)O)NC1=O [Compound 517]
IC50 [1]: 2.1 nM

SMILES: CC(C)C[C@@H]1NC(=O)c2ccc(-c3ccc(N4CCN(C(=O)c5cc(F)ccc5-c5ccc(F)cc5C(=O)N5CCN(c6ccc(-c7ccc8cc7CNC(=O)[C@@H]7CCCN7[C@H](C(=O)NC(C)(C)C)[C@H](C)NC(=O)[C@H]([C@@H](C)O)NC(=O)[C@H](CC(=O)O)NC(=O)[C@H](CC(C)C)NC8=O)cc6)CC5)CC4)cc3)c(c2)CNC(=O)[C@@H]2CCCN2[C@H](C(=O)NC(C)(C)C)[C@H](C)NC(=O)[C@H]([C@@H](C)O)NC(=O)[C@H](CC(=O)O)NC1=O [Compound 475]
IC50 [1]: 1.1 nM
